The record followed here is ChEMBL document CHEMBL1158065, “Prenylated phenolics from Ganoderma fornicatum” (J Nat Prod, 2006).

This assay relates to HEp-2. The experiment in a line: Cytotoxicity against human Hep2 cells by MTT method. The format is functional, cell-based. (In general: Formazan colour is commonly taken as a measure of viable cells.)

Converted amounts (≈) assume the structure as drawn.

In turn, `COC1(c2cc(O)ccc2O)C=C(CC/C=C(\C)CCC=C(C)C)C(=O)O1` (configuration not stated) [FORNICIN B] returned an IC50 of 15 µg/mL (≈ 40.3 µM).

In turn, `CC(C)=CCC/C(C)=C/CCC(CC(=O)c1cc(O)ccc1O)C(=O)O` (configuration not stated) [FORNICIN C] came in with an IC50 of 23 µg/mL (≈ 63.8 µM).

Usually IC50 stands for the concentration needed to halve the response being measured.
